The text below walks through data of PubChem BioAssay AID270 (DTP/NCI, 2004).

The subject of this assay is BDF1 mice, s.c. Lewis lung carcinoma, T/C %. In words: NCI In Vivo Anticancer Drug Screen. Data for tumor model Lewis Lung Carcinoma (subcutaneous) in B6D2F1 (BDF1) mice. The method, boiled down: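 Transplanted tumors grown in mice; compound vs vehicle dosing; endpoint survival or tumor size; ratio T/C.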
Where [1] appears, read: endpoint: median survival time, dose: 12.5 mg/kg/injection, schedule: Q01DX009 (ip), vehicle: saline, higher = longer survival.
The mark [2] stands for this setting: endpoint: median survival time, dose: 25.0 mg/kg/injection, schedule: Q01DX009 (ip), vehicle: saline, higher = longer survival.
The mark [3] stands for this setting: endpoint: mean tumor weight, dose: 0.4 mg/kg/injection, schedule: Q01DX011 (ip), vehicle: saline, higher = larger tumour.
[4] abbreviates: endpoint: mean tumor weight, dose: 0.6 mg/kg/injection, schedule: Q01DX011 (ip), vehicle: saline, higher = larger tumour.
Setting [5] is: endpoint: mean tumor weight, dose: 200.0 mg/kg/injection, schedule: Q01DX011 (ip), vehicle: other, higher = larger tumour.

Several values for one entry are separate records, joined by “and”; a condition that tells them apart may be missing. Equal values may be shown once. Inconclusive results are not listed.

As to `C/C=C1\CN(C)[C@H]2Cc3c([nH]c4ccccc34)[C@@H](c3cc4[nH]c5c(c4cc3OC)CCN3C[C@H]4C[C@H](CC)[C@H]3[C@@]5(C(=O)OC)C4)C[C@H]1C2C(=O)OC` (stereo partly specified), the T/C (endpoint: mean tumor weight, dose: 18.0 mg/kg/injection, schedule: Q01DX011 (ip), vehicle: water, higher = larger tumour) is 66 % of control; the T/C (endpoint: mean tumor weight, dose: 27.0 mg/kg/injection, schedule: Q01DX011 (ip), vehicle: water, higher = larger tumour) was 81 % of control; the T/C (endpoint: mean tumor weight, dose: 40.0 mg/kg/injection, schedule: Q01DX011 (ip), vehicle: water, higher = larger tumour) was 62 % of control.

`COc1cc([C@@H]2c3cc4c(cc3[C@@H](OC3OC5COC(C)OC5C(O)C3O)[C@H]3COC(=O)[C@H]23)OCO4)cc(OC)c1O` (stereo partly specified): the T/C is, setting by setting: (endpoint: median survival time, dose: 4.0 mg/kg/injection, schedule: Q01DX009 (ip), vehicle: saline, higher = longer survival) 124 % of control; (endpoint: median survival time, dose: 20.0 mg/kg/injection, schedule: Q04DX003 (ip), vehicle: saline, higher = longer survival) 107 % of control; (endpoint: median survival time, dose: 20.0 mg/kg/injection, schedule: Q04DX003 (sc), vehicle: saline, higher = longer survival) 124 % of control; (endpoint: median survival time, dose: 80.0 mg/kg/injection, schedule: Q04DX003 (ip), vehicle: saline, higher = longer survival) 91 % of control.

Regarding `COc1cc(OC)cc(-c2cc(=O)c3c(OC)c(OC)c(OC)c(OC)c3o2)c1`, the T/C was 64 % of control (endpoint: mean tumor weight, dose: 25.0 mg/kg/injection, schedule: Q01DX011 (sc), vehicle: steriod suspending solution, higher = larger tumour); 87 % of control (endpoint: mean tumor weight, dose: 50.0 mg/kg/injection, schedule: Q01DX011 (sc), vehicle: steriod suspending solution, higher = larger tumour); 82 % of control (endpoint: mean tumor weight, dose: 100.0 mg/kg/injection, schedule: Q01DX011 (sc), vehicle: steriod suspending solution, higher = larger tumour); 81 % of control (endpoint: mean tumor weight, dose: 200.0 mg/kg/injection, schedule: Q01DX011 (sc), vehicle: steriod suspending solution, higher = larger tumour).

Take `O=C1C=Cc2ccc(O)cc2C1=O`: the T/C (endpoint: mean tumor weight, dose: 0.57 mg/kg/injection, schedule: Q01DX011 (ip), vehicle: saline, higher = larger tumour) was 104 % of control; the T/C (endpoint: mean tumor weight, dose: 0.86 mg/kg/injection, schedule: Q01DX011 (ip), vehicle: saline, higher = larger tumour) is 81 % of control; the T/C (endpoint: mean tumor weight, dose: 1.3 mg/kg/injection, schedule: Q01DX011 (ip), vehicle: saline, higher = larger tumour) is 59 % of control; the T/C (endpoint: mean tumor weight, dose: 2.0 mg/kg/injection, schedule: Q01DX011 (ip), vehicle: saline, higher = larger tumour) was 60 % of control.

For `CC1=CC(=O)N(NC(N)=O)C1=O`, the T/C is 107 % of control under setting [1]; 104 % of control under setting [2]; 90 % of control (endpoint: median survival time, dose: 50.0 mg/kg/injection, schedule: Q01DX009 (ip), vehicle: saline, higher = longer survival).

`Nc1ccc(N=Nc2ccccc2)c(N)c1`: the T/C is 109 % of control (endpoint: median survival time, dose: 2.25 mg/kg/injection, schedule: Q01DX009 (ip), vehicle: Klucel (hydroxypropylcellulose) (HPC), higher = longer survival); 102 % of control (endpoint: median survival time, dose: 4.5 mg/kg/injection, schedule: Q01DX009 (ip), vehicle: Klucel (hydroxypropylcellulose) (HPC), higher = longer survival); 106 % of control (endpoint: median survival time, dose: 9.0 mg/kg/injection, schedule: Q01DX009 (ip), vehicle: Klucel (hydroxypropylcellulose) (HPC), higher = longer survival); 101 % of control (endpoint: median survival time, dose: 18.0 mg/kg/injection, schedule: Q01DX009 (ip), vehicle: Klucel (hydroxypropylcellulose) (HPC), higher = longer survival); 99 % of control (endpoint: median survival time, dose: 75.0 mg/kg/injection, schedule: Q01DX009 (ip), vehicle: Klucel (hydroxypropylcellulose) (HPC), higher = longer survival); 97 % of control (endpoint: median survival time, dose: 200.0 mg/kg/injection, schedule: Q01DX009 (ip), vehicle: Klucel (hydroxypropylcellulose) (HPC), higher = longer survival).

On to `[N-]=[N+]=CC(=O)NCC(=O)NN`, for which the T/C runs as follows: (endpoint: mean tumor weight, dose: 125.0 mg/kg/injection, schedule: Q01DX011 (ip), vehicle: water, higher = larger tumour) 95 % of control; (endpoint: mean tumor weight, dose: 250.0 mg/kg/injection, schedule: Q01DX011 (ip), vehicle: water, higher = larger tumour) 66 % of control; (endpoint: mean tumor weight, dose: 500.0 mg/kg/injection, schedule: Q01DX011 (ip), vehicle: water, higher = larger tumour) 40 % of control.

In the case of `Cc1ccc2oc(-c3ccccc3)c(O)c(=O)c2c1`, the T/C (endpoint: mean tumor weight, dose: 18.8 mg/kg/injection, schedule: Q01DX010 (ip), vehicle: saline, higher = larger tumour) is 77 % of control; the T/C (endpoint: mean tumor weight, dose: 37.5 mg/kg/injection, schedule: Q01DX010 (ip), vehicle: saline, higher = larger tumour) was 73 % of control; the T/C (endpoint: mean tumor weight, dose: 75.0 mg/kg/injection, schedule: Q01DX010 (ip), vehicle: saline, higher = larger tumour) is 57 % of control; the T/C (endpoint: mean tumor weight, dose: 150.0 mg/kg/injection, schedule: Q01DX010 (ip), vehicle: saline, higher = larger tumour) is 86 % of control.

For `FCCNC1CCCCC1`, the T/C was 99 % of control (endpoint: mean tumor weight, dose: 1.5 mg/kg/injection, schedule: Q01DX011 (ip), vehicle: carboxymethylcellulose (CMC), higher = larger tumour); 89 % of control (endpoint: mean tumor weight, dose: 5.0 mg/kg/injection, schedule: Q01DX011 (ip), vehicle: carboxymethylcellulose (CMC), higher = larger tumour); 68 % of control (endpoint: mean tumor weight, dose: 7.5 mg/kg/injection, schedule: Q01DX011 (ip), vehicle: carboxymethylcellulose (CMC), higher = larger tumour).

Regarding `CC1(C)N=C(N)N=C(N)N1c1ccc(F)c(C(F)(F)F)c1`, the T/C runs as follows: under setting [1], 121 % of control; under setting [2], 111 % of control.

For the compound `CC1=C2C(=C[C@@](C)(CO)[C@@H]2O)C(=O)[C@](C)(O)C12CC2`, the T/C was 113 % of control (endpoint: mean tumor weight, dose: 0.05 mg/kg/injection, schedule: Q01DX011 (ip), vehicle: saline, higher = larger tumour); 102 % of control (endpoint: mean tumor weight, dose: 0.1 mg/kg/injection, schedule: Q01DX011 (ip), vehicle: saline, higher = larger tumour); 92 % of control (endpoint: mean tumor weight, dose: 0.2 mg/kg/injection, schedule: Q01DX011 (ip), vehicle: saline, higher = larger tumour); 19 % of control and 41 % of control under setting [3]; 20 % of control under setting [4].

With `O=C1C2C3C=CC(C3)C2C(=O)N1c1nccs1` (stereo unspecified), the T/C (endpoint: mean tumor weight, dose: 50.0 mg/kg/injection, schedule: Q01DX011 (ip), vehicle: carboxymethylcellulose (CMC), higher = larger tumour) was 113 % of control; the T/C (endpoint: mean tumor weight, dose: 100.0 mg/kg/injection, schedule: Q01DX011 (ip), vehicle: carboxymethylcellulose (CMC), higher = larger tumour) was 100 % of control; the T/C (endpoint: mean tumor weight, dose: 200.0 mg/kg/injection, schedule: Q01DX011 (ip), vehicle: carboxymethylcellulose (CMC), higher = larger tumour) is 45 % of control.

On to `CS(=O)(=O)OCC(=O)NCCNC(=O)COS(C)(=O)=O`, for which the T/C (endpoint: mean tumor weight, dose: 25.0 mg/kg/injection, schedule: Q01DX011 (ip), vehicle: saline, higher = larger tumour) was 98 % of control; the T/C (endpoint: mean tumor weight, dose: 50.0 mg/kg/injection, schedule: Q01DX011 (ip), vehicle: saline, higher = larger tumour) is 90 % of control; the T/C (endpoint: mean tumor weight, dose: 100.0 mg/kg/injection, schedule: Q01DX011 (ip), vehicle: saline, higher = larger tumour) was 94 % of control; the T/C (endpoint: mean tumor weight, dose: 200.0 mg/kg/injection, schedule: Q01DX011 (ip), vehicle: saline, higher = larger tumour) was 82 % of control.

For `COc1cccc(/C=N/NC(=O)c2ccccc2N2CCCC2)c1O`, the T/C (endpoint: median survival time, dose: 100.0 mg/kg/injection, schedule: Q01DX009 (ip), vehicle: olive oil, sesame oil, peanut oil, higher = longer survival) was 90 % of control.

`O=C(O)CSC1(SCC(=O)O)CCCCC1`: the T/C is 75 % of control (endpoint: mean tumor weight, dose: 133.0 mg/kg/injection, schedule: Q01DX011 (ip), vehicle: other, higher = larger tumour); 77 % of control under setting [5]; 104 % of control (endpoint: mean tumor weight, dose: 300.0 mg/kg/injection, schedule: Q01DX011 (ip), vehicle: other, higher = larger tumour); 86 % of control (endpoint: mean tumor weight, dose: 450.0 mg/kg/injection, schedule: Q01DX011 (ip), vehicle: other, higher = larger tumour).

`CCOC(=O)NC1=C(N2CC2)C(=O)C(NC(=O)OCC)=C(N2CC2)C1=O`: the T/C is, setting by setting: (endpoint: median survival time, dose: 0.5 mg/kg/injection, schedule: Q01DX009 (ip), vehicle: saline with Tween-80, higher = longer survival) 110 % of control; (endpoint: median survival time, dose: 0.67 mg/kg/injection, schedule: Q01DX005 (ip), vehicle: saline with Tween-80, higher = longer survival) 92 % of control; (endpoint: median survival time, dose: 2.5 mg/kg/injection, schedule: Q01DX005 (ip), vehicle: saline with Tween-80, higher = longer survival) 91 % of control; (endpoint: median survival time, dose: 3.0 mg/kg/injection, schedule: Q01DX009 (ip), vehicle: saline with Tween-80, higher = longer survival) 100 % of control; (endpoint: median survival time, dose: 3.0 mg/kg/injection, schedule: Q04DX003 (ip), vehicle: saline with Tween-80, higher = longer survival) 86 % of control; (endpoint: median survival time, dose: 4.0 mg/kg/injection, schedule: Q04DX003 (ip), vehicle: saline with Tween-80, higher = longer survival) 93 % of control. Also, the T/C reads like this: (endpoint: median survival time, dose: 4.5 mg/kg/injection, schedule: Q01DX009 (ip), vehicle: saline with Tween-80, higher = longer survival) 96 % of control; (endpoint: median survival time, dose: 17.0 mg/kg/injection, schedule: Q01DX001 (ip), vehicle: saline with Tween-80, higher = longer survival) 100 % of control; (endpoint: median survival time, dose: 26.0 mg/kg/injection, schedule: Q01DX001 (ip), vehicle: saline with Tween-80, higher = longer survival) 86 % of control.

As for `CC1=C2C(=CC(C)(C)[C@@H]2O)C(=O)[C@](C)(O)C12CC2`, the T/C is, setting by setting: (endpoint: mean tumor weight, dose: 0.12 mg/kg/injection, schedule: Q01DX011 (ip), vehicle: saline, higher = larger tumour) 61 % of control; (endpoint: mean tumor weight, dose: 0.18 mg/kg/injection, schedule: Q01DX011 (ip), vehicle: saline, higher = larger tumour) 92 % of control; (endpoint: mean tumor weight, dose: 0.26 mg/kg/injection, schedule: Q01DX011 (ip), vehicle: saline, higher = larger tumour) 73 % of control; under setting [3], 76 % of control; under setting [4], 19 % of control.

For the compound `S=c1c2[nH]cnc2ncn1CCSC1=NC=NC2=NC=NC21` (stereo unspecified), the T/C is 96 % of control (endpoint: mean tumor weight, dose: 50.0 mg/kg/injection, schedule: Q01DX011 (ip), vehicle: other, higher = larger tumour); 53 % of control (endpoint: mean tumor weight, dose: 100.0 mg/kg/injection, schedule: Q01DX011 (ip), vehicle: other, higher = larger tumour); 61 % of control under setting [5]; 37 % of control (endpoint: mean tumor weight, dose: 400.0 mg/kg/injection, schedule: Q01DX011 (ip), vehicle: other, higher = larger tumour).
